# Assays:
# Details in all cases: incubation time: 72 h
# HDQ-P1 [1] = experiment: drug sensitivity score (DSS), CellTiter-Glo (DSS (AUC-based score)); higher = stronger drug effect (viability inhibition or cytotoxicity); extreme values may be limits of the assay
# In short: (§1)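 After 72 h of incubation in 384-well plates with compound at 5 concentrations (10-fold steps, 10,000-fold range set per compound), breast cancer cell lines seeded in 20 µl suspension were read first for CellTox Green fluorescence at 485/520 nm. CellTiter-Glo luminescence was measured next, after 10 min at room temperature. Normalisation on each plate used 0.1 % DMSO and a positive kill control, and the drug sensitivity score was computed from the area under the fitted dose-response curve.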
# HCC1143 [2] = experiment: as above
# In short: as §1
# Hs578T [3] = experiment: as above
# In short: as §1
# MFM-223 [4] = experiment: as above
# In short: as §1
# SK-BR-3 [5] = experiment: as above
# In short: as §1
# MDA-MB-436 [6] = experiment: as above
# In short: as §1
# HCC1937 [7] = experiment: as above
# In short: as §1
# MDA-MB-468 = experiment: as above
# In short: as §1
# MCF-10A = experiment: as above
# In short: as §1
# BT-549 [8] = experiment: as above
# In short: as §1
# BT-474 [9] = experiment: as above
# In short: as §1
# HDQ-P1 [10] = experiment: normalised viability (% of control), CellTiter-Blue; higher = more viable cells (100 = DMSO, 0 = benzethonium chloride kill control)
# Experimental: (§2)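 DSRT, CellTiter-Blue viability, 72 h incubation. Signal is normalised to DMSO and benzethonium chloride controls. Value is the normalised response at dose 1.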
# HCC1143 [11] = experiment: as above
# Experimental: as §2
# Hs578T [12] = experiment: as above
# Experimental: as §2
# MDA-MB-231 = experiment: as above
# Experimental: as §2
# MFM-223 [13] = experiment: as above
# Experimental: as §2
# CAL-51 = experiment: as above
# Experimental: as §2
# CAL-85-1 = experiment: as above
# Experimental: as §2
# SK-BR-3 [14] = experiment: as above
# Experimental: as §2
# MDA-MB-436 [15] = experiment: as above
# Experimental: as §2
# HCC1937 [16] = experiment: as above
# Experimental: as §2
# HCC1599 = experiment: as above
# Experimental: as §2
# MDA-MB-453 = experiment: as above
# Experimental: as §2
# CAL-120 = experiment: as above
# Experimental: as §2
# CAL-148 = experiment: as above
# Experimental: as §2
# BT-549 [17] = experiment: as above
# Experimental: as §2
# BT-474 [18] = experiment: as above
# Experimental: as §2
SMILES,drug sensitivity score (HDQ-P1 [1]),drug sensitivity score (HCC1143 [2]),drug sensitivity score (Hs578T [3]),drug sensitivity score (MFM-223 [4]),drug sensitivity score (SK-BR-3 [5]),drug sensitivity score (MDA-MB-436 [6]),drug sensitivity score (HCC1937 [7]),drug sensitivity score (MDA-MB-468),drug sensitivity score (MCF-10A),drug sensitivity score (BT-549 [8]),drug sensitivity score (BT-474 [9]),normalised viability (HDQ-P1 [10]; 1 nM),normalised viability (HCC1143 [11]; 1 nM),normalised viability (Hs578T [12]; 1 nM),normalised viability (MDA-MB-231; 1 nM),normalised viability (MFM-223 [13]; 1 nM),normalised viability (CAL-51; 1 nM),normalised viability (CAL-85-1; 1 nM),normalised viability (SK-BR-3 [14]; 1 nM),normalised viability (MDA-MB-436 [15]; 1 nM),also measured
C=CC(=O)Nc1cc2c(Nc3ccc(F)c(Cl)c3)ncnc2cc1OCCCN1CCOCC1 [Canertinib],11.8,3.9,2.99,3.18,20.8,4.2,5.34,10.6,22,7.57,6.57,88.3%,90.2%,103%,98.5%,92.8%,109%,80%,86.2%,97.5%,normalised viability (HCC1937 [16]; 1 nM): 90.6%; normalised viability (HCC1599; 1 nM): 94.8%; normalised viability (MDA-MB-453; 1 nM): 103%; normalised viability (CAL-120; 1 nM): 84.4%; normalised viability (CAL-148; 1 nM): 99.5%; normalised viability (BT-549 [17]; 1 nM): 110%; normalised viability (BT-474 [18]; 1 nM): 97.5%
O=C(O)C1(C(=O)O)CCC1.[NH2-].[NH2-].[Pt+2] [Carboplatin],0,0,0,0,0,0,0,0,0,0,0,109%,90.7%,125%,105%,96.6%,99.2%,90.2%,105%,102%,normalised viability (HCC1937 [16]; 1 nM): 80.9%; normalised viability (HCC1599; 1 nM): 91.3%; normalised viability (MDA-MB-453; 1 nM): 98.7%; normalised viability (CAL-120; 1 nM): 84.1%; normalised viability (CAL-148; 1 nM): 96.9%; normalised viability (BT-549 [17]; 1 nM): 95.2%; normalised viability (BT-474 [18]; 1 nM): 109%
COc1cc2c(Oc3ccc4[nH]c(C)cc4c3F)ncnc2cc1OCCCN1CCCC1 [Cediranib],0,0,0,1.86,0,0,0,0,0,0,0,–,–,–,–,–,–,–,–,–,normalised viability (HDQ-P1 [10]; 0.1 nM): 81.1%; normalised viability (HCC1143 [11]; 0.1 nM): 110%; normalised viability (Hs578T [12]; 0.1 nM): 92%; normalised viability (MDA-MB-231; 0.1 nM): 94.4%; normalised viability (MFM-223 [13]; 0.1 nM): 101%; normalised viability (CAL-51; 0.1 nM): 91.3%; normalised viability (CAL-85-1; 0.1 nM): 107%; normalised viability (SK-BR-3 [14]; 0.1 nM): 92.3%; normalised viability (MDA-MB-436 [15]; 0.1 nM): 94.8%; normalised viability (HCC1937 [16]; 0.1 nM): 113%; normalised viability (HCC1599; 0.1 nM): 82.5%; normalised viability (MDA-MB-453; 0.1 nM): 82.5%; normalised viability (CAL-120; 0.1 nM): 112%; normalised viability (CAL-148; 0.1 nM): 109%; normalised viability (BT-549 [17]; 0.1 nM): 90.5%; normalised viability (BT-474 [18]; 0.1 nM): 87.8%
Cc1ccc(-c2cc(C(F)(F)F)nn2-c2ccc(S(N)(=O)=O)cc2)cc1 [Celecoxib],0,0,0,0,0,0,0,0,0,0,0,114%,90.7%,111%,117%,98.5%,91.3%,86.8%,75.2%,104%,normalised viability (HCC1937 [16]; 1 nM): 96.7%; normalised viability (HCC1599; 1 nM): 79%; normalised viability (MDA-MB-453; 1 nM): 97.3%; normalised viability (CAL-120; 1 nM): 78.3%; normalised viability (CAL-148; 1 nM): 95.4%; normalised viability (BT-549 [17]; 1 nM): 90.7%; normalised viability (BT-474 [18]; 1 nM): 76.1%
Nc1ccccc1NC(=O)c1ccc(CNC(=O)OCc2cccnc2)cc1 [Entinostat],2.05,3.36,4.83,3.34,6.67,2.51,0,4.34,0,8.43,2.59,113%,95.7%,118%,102%,98.7%,110%,97%,102%,124%,normalised viability (HCC1937 [16]; 1 nM): 80.4%; normalised viability (HCC1599; 1 nM): 102%; normalised viability (MDA-MB-453; 1 nM): 113%; normalised viability (CAL-120; 1 nM): 83.6%; normalised viability (CAL-148; 1 nM): 95.8%; normalised viability (BT-549 [17]; 1 nM): 107%; normalised viability (BT-474 [18]; 1 nM): 109%
Nc1nc(F)nc2c1ncn2[C@@H]1O[C@H](CO)[C@@H](O)[C@@H]1O [Fludarabine],0,0,0,0,0,1.1,0,0,0,0.896,0,134%,86.8%,109%,89.1%,101%,103%,92.8%,98.7%,90.5%,normalised viability (HCC1937 [16]; 1 nM): 105%; normalised viability (HCC1599; 1 nM): 92.6%; normalised viability (MDA-MB-453; 1 nM): 102%; normalised viability (CAL-120; 1 nM): 83%; normalised viability (CAL-148; 1 nM): 81.9%; normalised viability (BT-549 [17]; 1 nM): 110%; normalised viability (BT-474 [18]; 1 nM): 67.6%
O=C(Cc1ccc(-c2ccc(OCCN3CCOCC3)cc2)cn1)NCc1ccccc1 [KX2-391],8.26,14.7,23.2,15.6,27.5,21,8.24,20,8.52,16.3,12.8,138%,92.7%,130%,92.8%,91.7%,106%,84.6%,105%,89%,normalised viability (HCC1937 [16]; 1 nM): 93.7%; normalised viability (HCC1599; 1 nM): 85.8%; normalised viability (MDA-MB-453; 1 nM): 116%; normalised viability (CAL-120; 1 nM): 93.8%; normalised viability (CAL-148; 1 nM): 107%; normalised viability (BT-549 [17]; 1 nM): 124%; normalised viability (BT-474 [18]; 1 nM): 79.1%
N#Cc1ccc(C(c2ccc(C#N)cc2)n2cncn2)cc1 [Letrozole],0,0,0,0,0,0,0,0,0,0,0,90.9%,73.7%,94.5%,78.8%,49.6%,108%,83.2%,86.8%,114%,normalised viability (HCC1937 [16]; 1 nM): 97.8%; normalised viability (HCC1599; 1 nM): 103%; normalised viability (MDA-MB-453; 1 nM): 96.4%; normalised viability (CAL-120; 1 nM): 74.3%; normalised viability (CAL-148; 1 nM): 107%; normalised viability (BT-549 [17]; 1 nM): 105%; normalised viability (BT-474 [18]; 1 nM): 73.4%

# From the supplement of paper PMC4862054
